Columns and labels:
Renilla luciferase-547 = biological target: T1, Renilla luciferase-547 (Renilla reniformis, UniProt P27652, A123S/A143M/A55T/C124A/D154A/D162E/E155G/F262W/I163V/K136R/M185V/M253L/S130A/S287L); assay: Measurement of emission spectrum with Renilla luciferase-547; assay type: biochemical; conditions: Renilla luciferase-547, 5 μg substrate, 50 mM Tris-HCl (pH 7.6)-10 mM EDTA, 22-25° C.
T1 construct: His6 with pCold-II leader (MNHKVHHHHHHMELG...) (N); made in house; host or cells: Escherichia coli BL21
T1 sequence (P27652 other isoform, or with tags, fused parts or gaps with the stated changes): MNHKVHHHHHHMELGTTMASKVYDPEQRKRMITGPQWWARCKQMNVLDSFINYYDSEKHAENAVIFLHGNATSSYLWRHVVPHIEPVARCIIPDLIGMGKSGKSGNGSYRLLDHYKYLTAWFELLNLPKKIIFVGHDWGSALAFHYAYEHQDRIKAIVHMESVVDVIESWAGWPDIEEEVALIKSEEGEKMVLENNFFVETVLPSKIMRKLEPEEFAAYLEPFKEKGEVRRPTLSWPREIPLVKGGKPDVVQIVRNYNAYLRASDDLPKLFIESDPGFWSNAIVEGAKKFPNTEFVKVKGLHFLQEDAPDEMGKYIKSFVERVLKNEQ
Protocol: (§1) The luminescence reaction was initiated by adding luciferase to 1 mL of 50 mM Tris-HCl (pH 7.6)-10 mM EDTA containing 5 μg (1 μg/μL) of substrate coelenterazine or ν-coelenterazine dissolved in ethanol. The protein amounts of luciferases used were Renilla luciferase: 1.5 μg and Renilla luciferase-547: 7.2 μg in the case of coelenterazine as substrate. On the other hand, the protein amounts in ν-coelenterazine as substrate were Renilla luciferase: 14.7 μg and Renilla luciferase-547: 35.8 μg. Luminescence spectra were measured in a quartz cell with a 10 mm optical path under the conditions of band width: 20 nm, sensitivity: medium, scan speed: 2000 nm/min and 22-25° C., using a fluorescence spectrophotometer FP-6500 (manufactured by JASCO) with the excitation light source turned off.

Renilla luciferase [1] = biological target: T2, Renilla luciferase (Renilla reniformis, UniProt P27652); assay: Measurement of luminescence activity with Renilla luciferase; assay type: biochemical; design: His tag (from vector pCold-II; inferred from the nickel-chelate purification and the vector) (N); made in house; host or cells: Escherichia coli BL21; conditions: Renilla luciferase 2.94 ng, 0.05 μg substrate, 30 mM Tris-HCl (pH 7.6)-10 mM EDTA; relative to coelenterazine
T2 sequence (P27652 1-311): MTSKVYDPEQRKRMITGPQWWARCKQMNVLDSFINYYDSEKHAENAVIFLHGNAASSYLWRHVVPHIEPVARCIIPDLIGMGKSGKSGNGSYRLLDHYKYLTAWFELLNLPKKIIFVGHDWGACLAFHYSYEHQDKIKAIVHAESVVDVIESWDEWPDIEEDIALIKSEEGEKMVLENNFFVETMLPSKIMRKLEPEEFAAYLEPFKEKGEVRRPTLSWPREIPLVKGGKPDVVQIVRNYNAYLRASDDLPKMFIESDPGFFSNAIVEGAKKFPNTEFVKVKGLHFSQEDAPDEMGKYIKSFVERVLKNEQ
Protocol: After Renilla luciferase (2.94 ng) or Renilla luciferase-547 (14.3 ng) was dispensed into a 96-well microplate (manufactured by Nunc) in an amount of 10 μL/well, 0.1 mL of 30 mM Tris-HCl (pH 7.6)-10 mM EDTA containing 0.05 μg of coelenterazine or ν-coelenterazine was injected into the wells thereby to initiate the luminescence reaction, and the luminescence intensity was measured using a luminescence plate reader Centro LB960 (manufactured by Berthold). The luminescence intensity was measured for 60 seconds 3 times in 0.1 second intervals, and the maximum luminescence intensity (Imax) and the mean (rlu) from luminescence integrated for 60 seconds were expressed in terms of relative activity (%) (TABLE 2).

Renilla luciferase [2] = biological target: T2, Renilla luciferase; assay: Measurement of emission spectrum with Renilla luciferase; assay type: biochemical; design: His tag (from vector pCold-II; inferred from the nickel-chelate purification and the vector) (N); made in house; host or cells: Escherichia coli BL21; conditions: for Emission Maximum λmax / Emission spectrum half bandwidth: Renilla luciferase, 5 μg substrate, 50 mM Tris-HCl (pH 7.6)-10 mM EDTA, 22-25° C.; for shift of maximum emission wavelength (in words): summary of EXAMPLES, Renilla luciferase and Renilla luciferase-547
Protocol: as §1

Renilla luciferase [3] = biological target: T2, Renilla luciferase; conditions: substrate for Renilla luciferase, cited from earlier work

O=c1c(Cc2ccc(O)cc2)nc2c(Cc3ccccc3)[nH]c(-c3ccc(O)cc3)cn1-2 [Coelenterazine, coelenterazine, reference compound]
Emission Maximum λmax (Renilla luciferase-547): 547.0 nm | Emission spectrum half bandwidth (Renilla luciferase-547): 124 nm | Luminescence integrated for 60 seconds (Int.), relative activity (Renilla luciferase [1]): 100 (100) % | Maximum Luminescence Intensity Imax, relative activity (Renilla luciferase [1]): 100 (100) % | Emission Maximum λmax (Renilla luciferase [2]): 485.0 nm | Emission spectrum half bandwidth (Renilla luciferase [2]): 95 nm

O=c1c(Cc2ccc(C(F)(F)F)cc2)nc2c(Cc3ccccc3)[nH]c3c4ccc(O)cc4ccc3n1-2 [cf3-v-Coelenterazine, cf3-ν-coelenterazine]
Emission Maximum λmax (Renilla luciferase-547): 599.0 nm | Emission spectrum half bandwidth (Renilla luciferase-547): 132 nm | Luminescence integrated for 60 seconds (Int.), relative activity (Renilla luciferase [1]): 12.3% | Maximum Luminescence Intensity Imax, relative activity (Renilla luciferase [1]): 18.9% | Emission Maximum λmax (Renilla luciferase [2]): 525.5 nm | Emission spectrum half bandwidth (Renilla luciferase [2]): 121 nm | shift of maximum emission wavelength (in words) (Renilla luciferase [2]): shifted toward a longer wavelength side even relative to ν-coelenterazine

O=c1c(Cc2ccc(O)cc2)nc2c(Cc3ccccc3)[nH]c3c4ccc(O)cc4ccc3n1-2 [v-Coelenterazine, ν-Coelenterazine]
Emission Maximum λmax (Renilla luciferase-547): 593.0 nm | Emission spectrum half bandwidth (Renilla luciferase-547): 130 nm | part of emission spectrum distribution reaching the near-infrared region (>700 nm) (Renilla luciferase [3]): ~5% | shift of maximum emission wavelength toward the longer wavelength side (Renilla luciferase [3]; from 475 nm): about 40 nm | maximum emission wavelength (Renilla luciferase [3]; green emission): 512 nm | Luminescence integrated for 60 seconds (Int.), relative activity (Renilla luciferase [1]): 47.3% | Maximum Luminescence Intensity Imax, relative activity (Renilla luciferase [1]): 71.8% | Emission Maximum λmax (Renilla luciferase [2]): 519.0 nm | Emission spectrum half bandwidth (Renilla luciferase [2]): 105 nm | shift of maximum emission wavelength (in words) (Renilla luciferase [2]): shifted toward a longer wavelength side relative to coelenterazine

— patent US9346767B2, “Substituted pyrazines and a process for producing the same” (JNC CORPORATION, priority 2011, dated 2016)
